Among the data in ChEMBL document CHEMBL3039007, “Structure-based identification of OATP1B1/3 inhibitors” (Mol Pharmacol, 2013) are residual activity values, retold here.

A word on the residual activity: it is the signal under treatment as a percentage of the control signal.

The target of series [1] is T1, Solute carrier organic anion transporter family member 1B1 (Homo sapiens, UniProt Q9Y6L6).
T1 sequence (Q9Y6L6 whole entry): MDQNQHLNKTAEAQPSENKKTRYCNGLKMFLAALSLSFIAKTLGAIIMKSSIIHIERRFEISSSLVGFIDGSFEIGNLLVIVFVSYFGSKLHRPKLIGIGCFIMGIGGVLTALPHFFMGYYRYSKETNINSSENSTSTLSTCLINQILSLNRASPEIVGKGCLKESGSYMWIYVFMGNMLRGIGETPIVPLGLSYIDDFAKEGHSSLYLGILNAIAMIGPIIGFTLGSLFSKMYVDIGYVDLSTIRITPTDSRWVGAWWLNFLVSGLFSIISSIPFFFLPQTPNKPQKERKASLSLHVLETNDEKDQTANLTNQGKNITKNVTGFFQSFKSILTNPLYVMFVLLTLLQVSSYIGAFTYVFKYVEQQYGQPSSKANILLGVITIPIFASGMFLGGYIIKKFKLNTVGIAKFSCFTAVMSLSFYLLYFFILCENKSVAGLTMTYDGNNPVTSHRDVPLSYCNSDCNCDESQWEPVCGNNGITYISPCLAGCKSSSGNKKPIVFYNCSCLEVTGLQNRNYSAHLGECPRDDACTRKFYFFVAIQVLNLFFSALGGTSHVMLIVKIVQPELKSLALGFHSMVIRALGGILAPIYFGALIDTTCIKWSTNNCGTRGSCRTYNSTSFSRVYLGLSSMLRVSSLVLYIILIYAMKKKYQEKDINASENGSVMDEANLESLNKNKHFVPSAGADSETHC
Conditions: chinese hamster, cho, 10 µM.

Series [2] concerns the target T2, Solute carrier organic anion transporter family member 1B3 (Homo sapiens, UniProt Q9NPD5).
T2 sequence (Q9NPD5 whole entry): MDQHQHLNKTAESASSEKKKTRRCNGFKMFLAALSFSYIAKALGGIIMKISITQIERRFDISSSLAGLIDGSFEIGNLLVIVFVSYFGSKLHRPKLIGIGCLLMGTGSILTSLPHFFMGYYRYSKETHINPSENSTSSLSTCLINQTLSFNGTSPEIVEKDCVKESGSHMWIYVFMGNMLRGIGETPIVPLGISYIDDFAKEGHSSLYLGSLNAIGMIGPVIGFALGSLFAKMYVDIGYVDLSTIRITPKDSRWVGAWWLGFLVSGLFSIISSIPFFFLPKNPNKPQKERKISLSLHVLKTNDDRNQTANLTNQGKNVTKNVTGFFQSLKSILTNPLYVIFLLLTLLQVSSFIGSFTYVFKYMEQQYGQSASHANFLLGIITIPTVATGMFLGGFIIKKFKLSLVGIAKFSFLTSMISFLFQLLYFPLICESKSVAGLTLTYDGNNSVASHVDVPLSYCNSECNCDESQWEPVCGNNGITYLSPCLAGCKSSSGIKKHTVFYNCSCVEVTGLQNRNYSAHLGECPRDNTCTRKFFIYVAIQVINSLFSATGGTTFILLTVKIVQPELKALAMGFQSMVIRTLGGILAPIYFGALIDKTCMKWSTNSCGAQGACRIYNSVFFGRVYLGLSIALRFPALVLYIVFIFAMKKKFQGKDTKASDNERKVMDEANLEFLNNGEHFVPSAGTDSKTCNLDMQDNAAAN
The conditions noted are these: chinese hamster, cho, 10 µM.

On to `COc1ccc(-c2cc(=O)c3cc(OC)ccc3o2)cc1` [6,4'-DIMETHOXYFLAVONE], for which the residual activity was found to be 34.44% in series [1] and 110.4% in series [2].

In the case of `O=C(O)c1nc2cc(Cl)c(Cl)cc2nc1O` [6,7-DICHLORO-3-HYDROXY-2-QUINOXALINECARBOXYLIC ACID], the residual activity in series [1] came out at 119%; in series [2], 108%.

Consider `NC(=O)c1ccc(N)nc1` [6-AMINONICOTINAMIDE], for which the residual activity is on record as 103.2% in series [1] and 108.6% in series [2].

Consider `C=C1C2CC[C@@]3(C)[C@H](c4ccoc4)OC(=O)C[C@]13O[C@H]1CC(=O)C(C)(C)[C@H](C(O)C(=O)OC)[C@@]21C` (some centres undefined) [6-HYDROXYANGOLENSIC ACID METHYL ESTER], for which the figures for the residual activity in series [1] and in series [2] were 23.65% and 61.1%, respectively.

As for `COc1ccc2c(=O)cc(-c3ccccc3OC)oc2c1` [7,2'-DIMETHOXYFLAVONE], the residual activity in series [1] is 95.82%; in series [2] it was 110.5%.

Regarding `COc1cccc(-c2cc(=O)c3ccc(OC)cc3o2)c1` [7,3'-DIMETHOXYFLAVONE], the residual activity in series [1] is 98.64%; in series [2], 101.6%.

In the case of `O=c1cc(-c2ccccc2)oc2c(O)c(O)ccc12` [7,8-DIHYDROXYFLAVONE], the residual activity in series [1] is recorded as 107.3%; in series [2], 140.6%.

For `Cn1c(=O)c2c(ncn2CCCl)n(C)c1=O` [7-CHLOROETHYLTHEOPHYLLINE], the residual activity in series [1] is reported as 90.03%; in series [2] it was 97.15%.

Regarding `O=C(O)c1cc(O)c2ccc(Cl)cc2n1` [7-CHLOROKYNURENIC ACID], the residual activity in series [1] is 93.09%; in series [2], 89.9%.

As to `O=C(O)c1cc(O)c(=O)c2c(O)c(O)ccc2c1` [7-DESHYDROXYPYROGALLIN-4-CARBOXYLIC ACID], the values for the residual activity in series [1] and in series [2] were 100.2% and 69.89%, respectively.

`COc1ccc2c(=O)ccoc2c1` [7-METHOXYCHROMONE]: the residual activity is on record as 91.79% in series [1] and 95.23% in series [2].

For `O=[N+]([O-])c1cccc2cn[nH]c12` [7-NITROINDAZOLE], the figures for the residual activity in series [1] and in series [2] were 147.5% and 106.1%, respectively.

For `COC(=O)[C@]1(C)CCC[C@]2(C)c3ccc(C(C)C)cc3C(=O)CC12` (some centres undefined) [7-OXOCALLITRISIC ACID, METHYL ESTER], the residual activity in series [1] turned out to be 127.8%; in series [2] it was 105.6%.

For the compound `CC(C)CCC[C@@H](C)[C@H]1CC[C@H]2[C@@H]3C(=O)C=C4C[C@@H](O)CC[C@]4(C)[C@H]3CC[C@]12C` [7-OXOCHOLESTEROL], the residual activity is 96.87% in series [1] and 90.78% in series [2].

For `CC(=O)O[C@H]1CC[C@@]2(C)C(=CC(=O)[C@H]3[C@@H]4CC[C@H]([C@H](C)CCCC(C)C)[C@@]4(C)CC[C@@H]32)C1` [7-OXOCHOLESTERYL ACETATE], the residual activity in series [1] was 97.51%; in series [2], 99.45%.

With `COc1ccccc1-c1cc(=O)c2cccc(OC)c2o1` [8,2'-DIMETHOXYFLAVONE], the figures for the residual activity in series [1] and in series [2] were 107.3% and 108%, respectively.

On to `Cn1c(=O)c2[nH]c(C3CCCC3)nc2n(C)c1=O` [8-CYCLOPENTYLTHEOPHYLLINE], for which the residual activity in series [1] came out at 111.5%; in series [2], 94.04%.

For the compound `CC(=O)/C=C\[C@@H]1[C@@]2(C)CCCC(C)(C)C2CC[C@@]1(C)O` (some centres undefined) [8-HYDROXY-15,16-BISNOR-11-LABDEN-13-ONE], the residual activity in series [1] worked out at 71.14%; in series [2] it was 84.33%.

Take `CC1(C)C(=O)[C@H]2C[C@]3(O)C4=CC(=O)O[C@@H](c5ccoc5)[C@@]4(C)CCC3[C@](C)(C2=O)[C@H]1CC(=O)O` (some centres undefined) [8-HYDROXYCARAPINIC ACID]: the residual activity in series [1] is 73.89%; in series [2] it was 78.38%.

For `COc1ccc([C@H]2Oc3c(I)c(OC)cc(OC)c3C[C@@H]2O)cc1OC` [8-IODOCATECHIN TETRAMETHYL ETHER], the residual activity in series [1] is 194.8%; in series [2], 100.1%.

On to `COC(=O)C[C@H]1C(C)(C)C2(O)OC34CC2C(=O)[C@]1(C)C3CC[C@]1(C)C4=CC(=O)O[C@H]1c1ccoc1` (stereo partly drawn) [8beta-HYDROXYCARAPIN, 3,8-HEMIACETAL], for which the residual activity in series [1] was 28.54%; in series [2] it was 49.62%.

As for `C[C@]12CCC(=O)C=C1CCc1ccc(O)cc12` [12-HYDROXY-4,4-BISNOR-4,8,11,13-PODOCARPATETRAEN-3-ONE], the residual activity in series [1] is 47.54%; in series [2] it was 82.18%.

Consider `COc1ccc2c(c1)[C@@]1(C)CC[C@@H](O)C[C@@H]1CC2` [12-METHOXY-4,4-BISNOR-5alpha-8,11,13-PODOCARPATRIEN-3-OL], for which the residual activity came to 95.25% in series [1] and 91.61% in series [2].

On to `COc1ccc2c(c1)OC1(O)COc3cc(OC)c(OC)cc3C1=C2` (centres undefined) [12a-HYDROXY-5-DEOXYDEHYDROMUNDUSERONE], for which the results for the residual activity in series [1] and in series [2] were 102.5% and 119.6%, respectively.

For `COc1cc2c(cc1OC)C1(O)C(=O)c3ccc(O)c(C(=O)O)c3OC1CO2` (centres undefined) [12a-HYDROXY-9-DEMETHYLMUNDUSERONE-8-CARBOXYLIC ACID], the residual activity in series [1] is 215.8%; in series [2] it was 86.59%.

For `Cc1ccc2c(c1)CC[C@H]1CC(=O)CC[C@]21C` [13-METHYL-4,4-BISNOR-8,11,13-PODOCARPATRIEN-3-ONE], the figures for the residual activity in series [1] and in series [2] were 162.9% and 93.8%, respectively.

Consider `COc1cccc2c1CCC1=CC(=O)CC[C@@]12C` [14-METHOXY-4,4-BISNOR-4,8,11,13-PODOCARPATETRAEN-3-ONE], for which the residual activity in series [1] is given as 143.1%; in series [2], 94.94%.

Take `COc1cccc2c1CCC1CC(=O)CC[C@]21C` (some centres undefined) [14-METHOXY-4,4-BISNOR-8,11,13-PODOCARPATRIEN-3-ONE]: the residual activity is recorded as 118% in series [1] and 100.9% in series [2].

Regarding `C/C1=C\CCC(=O)C2CC(C)(C)C2CC1` (centres undefined) [15-NORCARYOPHYLLEN-3-ONE], the residual activity is on record as 72.07% in series [1] and 90.82% in series [2].

Consider `COC(=O)C[C@H]1C(C)(C)C(=O)[C@H]2CC3=C4CC(OC)O[C@@H](c5ccoc5)[C@@]4(C)CCC3[C@]1(C)C2=O` (some centres undefined) [16-DEOXOMEXICANOLIDE 16-METHYL ETHER], for which the residual activity in series [1] came out at 53.47%; in series [2], 141.6%.

`CC(C)c1ccc2c(c1)CCC1[C@](C)(CN)CCC[C@]21C.O=S(=O)(O)O` (some centres undefined) [18-AMINOABIETA-8,11,13-TRIENE SULFATE]: the residual activity in series [1] came to 102.4%; in series [2], 99.03%.

In the case of `CC(C)c1c(O)ccc2c1CC[C@H]1[C@@](C)(CO)CCC[C@]21C` [19-HYDROXYTOTAROL], the residual activity is given as 15.89% in series [1] and 20.52% in series [2].

In the case of `CC(C)(O)CC[C@@H](O)[C@](C)(O)[C@H]1CC[C@@]2(O)C3=CC(=O)[C@@H]4C[C@@H](O)[C@@H](O)C[C@]4(C)[C@H]3CC[C@]12C` [20-HYDROXYECDYSONE], the residual activity in series [1] was 115%; in series [2], 127.1%.

For the compound `C[C@H](N)[C@H](O)c1ccccc1` [(1R,2S)-PHENYLPROPANOLAMINE], the figures for the residual activity in series [1] and in series [2] were 97.41% and 87%, respectively.

As for `CC(=O)C1=C(O)C=C2Oc3c(C(C)=O)c(O)c(C)c(O)c3[C@@]2(C)C1=O` [(+)-USNIC ACID], the residual activity in series [1] was determined as 31.05%; in series [2], 69.13%.

Take `Oc1cc(O)c2c(c1)O[C@H](c1ccc(O)c(O)c1)[C@H](O)C2` [(-)-EPICATECHIN]: the residual activity in series [1] is reported as 80.37%; in series [2] it was 77.92%.

With `CN[C@@H](Cc1c[nH]c2ccccc12)C(=O)O` [ABRINE], the residual activity in series [1] worked out at 86.73%; in series [2], 98.3%.
